From patent publication US20200281208A1 (ISAGRO S.p.A., priority 2015, published 2020)
Read-outs that look alike come from different tables or passages of the source.

How the values were obtained:
Format in all cases: in vivo
[1] = system: Pseudomonas syringae pv tomato; assay: Biological evaluation of cupric salts of carboxylic acids on Pseudomonas syringae pv tomato, tomato plants in cold greenhouse (Example 10, comparative); details: 250 ppm a.i., survey 7 days after infection/treatment, 10 plants per plot
Source text: Biological Evaluation of Cupric Salts of Carboxylic Acids on Pseudomonas syringae pv tomato
A comparison was effected between the bactericidal activity of various cupric salts of carboxylic acids described in patent application US2009/136581 with that of crystalline foiin 1.
(§1) The day after application, the plants were infected with a suspension of bacterial cells previously cultivated in Nutrient Broth culture broth, at a bacterium-broth concentration of 1:4.
(§2) The inoculum, kept under stirring for 2 days, was sprayed on the plants in the morning, in guttation phase, with knapsack sprayers.
(§3) Visual surveys were effected 7 days after each infection/treatment, analyzing 10 plants per plot, analyzing the percentage of leaf surface affected.

Tomato plants = assay: Phytotoxicity on treated tomato plants (Example 10, comparative); details: 250 ppm a.i.
Source text: as §3

[2] = system: Pseudomonas syringae pv tomato; details: survey 7 days after infection/treatment; for Leaf surface affected (%): tomato plants
Source text: Biological Evaluation of the […] of […] on Pseudomonas syringae pv tomato
In the above table, SC is an abbreviation of “concentrated aqueous suspension” and TQ of “as such”.
as §1, §2
Visual surveys were effected 7 days after each infection/treatment, analyzing 50 plants per plot, analyzing the percentage of plants infected and the percentage of leaf surface affected.

SMILES: O=C(O)CC(O)C(=O)O.[Cu] (centres unmarked) [Copper malate]
- Leaf surface affected (%) [1]: 5%
- Phytotoxicity (%) (Tomato plants): 20%

SMILES: [Cu+2].[OH-].[OH-] [Cu(OH)2, copper hydroxide]
- Quantity infected plants (%) ([2]; 6.25 g a.i./100 l): 37.5%
- Quantity infected plants (%) ([2]; 12.5 g a.i./100 l): 35.7%
- Quantity infected plants (%) ([2]; 25 g a.i./100 l, 500 l per hectare, 50 plants per plot): 31.0%
- Leaf surface affected (%) ([2]; 6.25 g a.i./100 l): 3.4%
- Leaf surface affected (%) ([2]; 12.5 g a.i./100 l): 4.9%
- Leaf surface affected (%) ([2]; 25 g a.i./100 l, 500 l per hectare): 3.9%

SMILES: O=C(O)CCCC(=O)O.[Cu] [Copper glutarate]
- Leaf surface affected (%) [1]: 69%
- Phytotoxicity (%) (Tomato plants): 0%

SMILES: O=C(O)CCC(=O)O.[Cu] [Copper succinate]
- Leaf surface affected (%) [1]: 50%
- Phytotoxicity (%) (Tomato plants): 0%

SMILES: O=C(O)c1ccccc1O [Salicylic acid]
- Quantity infected plants (%) ([2]; 13.6 g a.i./100 l): 40.7%
- Quantity infected plants (%) ([2]; 27.2 g a.i./100 l): 31.5%
- Quantity infected plants (%) ([2]; 54.2 g a.i./100 l): 36.3%
- Leaf surface affected (%) ([2]; 13.6 g a.i./100 l): 4.7%
- Leaf surface affected (%) ([2]; 27.2 g a.i./100 l): 3.9%
- Leaf surface affected (%) ([2]; 54.2 g a.i./100 l): 3.5%

SMILES: O=C([O-])C(O)C(O)C(=O)[O-].[Cu+2] (centres unmarked) [Copper tartrate]
- Leaf surface affected (%) [1]: 69%
- Phytotoxicity (%) (Tomato plants): 0%
